target: recombinant CaMKIIδ (Homo sapiens (Human), UniProt Q13557); assay: CaMKIIδ biochemical assay (HTRF); settings: 10 pM CaMKIIδ, 110 nM calmodulin, 12 μM ATP, 1 hour; read-out: CAMKIID-HTRF-384V2 (IC50 - nM)
Experimental: CaMKIIδ Biochemical Assay
The biochemical activity of recombinant CaMKIIδ was measured by monitoring the phosphorylation of a target peptide using Homogenous Time Resolved Fluorescence (HTRF) technology from CisBio Bioassays.

Row | Compound | IC50
1 | CCN(CC)[C@@H](C)CNC(=O)c1cc(OCc2ccc[n+]([O-])c2)nc(-c2cnn3ccc(-c4cccs4)nc23)c1 [Example 355, (S)-3-(((4-((2-(diethylamino)propyl)carbamoyl)-6-(5-(thiophen-2-yl)pyrazolo[1,5-a]pyrimidin-3-yl)pyridin-2-yl)oxy)methyl)pyridine 1-oxide] | 0.54 nM
2 | CCNc1cc(C(=O)NC[C@H](C)N(CC)CC)cc(-c2cnn3ccc(-c4cccs4)nc23)n1 [Example 261, (S)—N-(2-(diethylamino)propyl)-2-(ethylamino)-6-(5-(thiophen-2-yl)pyrazolo[1,5-a]pyrimidin-3-yl)isonicotinamide] | 0.54 nM
3 | O=C(c1ccnc(-c2cnn3ccc(-c4ccccc4)nc23)c1)N1C[C@H]2CC[C@@H](C1)N2 [Example 100, ((1R,5S)-3,8-diazabicyclo[3.2.1]octan-3-yl)(2-(5-phenylpyrazolo[1,5-a]pyrimidin-3-yl)pyridin-4-yl)methanone] | 29.8 nM
4 | CCN(CC)[C@@H](C)CNC(=O)c1cc(-c2cnn3ccc(-c4cccs4)nc23)nc(N2CC[C@H]2C(=O)NCC(F)F)c1 [Example 282, N—((S)-2-(diethylamino)propyl)-2-((S)-2-((2,2-difluoroethyl)carbamoyl)azetidin-1-yl)-6-(5-(thiophen-2-yl)pyrazolo[1,5-a]pyrimidin-3-yl)isonicotinamide] | 0.47 nM
5 | CCN(CC(F)F)[C@@H](C)CNC(=O)c1ccnc(-c2cnn3ccc(-c4cccs4)nc23)c1 [Example 15, (S)—N-(2-((2,2-difluoroethyl)(ethyl)amino)propyl)-2-(5-(thiophen-2-yl)pyrazolo[1,5-a]pyrimidin-3-yl)isonicotinamide] | 8.34 nM
6 | CCN(CC)[C@@H](C)CNC(=O)c1cc(-c2cnn3ccc(-c4cccs4)nc23)nc(N2CCC23CCC3)c1 [Example 250, (S)—N-(2-(diethylamino)propyl)-2-(1-azaspiro[3.3]heptan-1-yl)-6-(5-(thiophen-2-yl)pyrazolo[1,5-a]pyrimidin-3-yl)isonicotinamide] | 1.61 nM
7 | COC1CN(c2cc(C(=O)NCC3(N)CCC3)cc(-c3cnn4ccc(-c5cccs5)nc34)n2)C1 [Example 170, N-((1-aminocyclobutyl)methyl)-2-(3-methoxyazetidin-1-yl)-6-(5-(thiophen-2-yl)pyrazolo[1,5-a]pyrimidin-3-yl)isonicotinamide] | 19.9 nM
8 | CCN(CC)[C@@H](C)CNC(=O)c1cc(-c2cnn3ccc(-c4cccs4)nc23)nc(N2CCC(F)(F)C2)c1 [Example 232, (S)—N-(2-(diethylamino)propyl)-2-(3,3-difluoropyrrolidin-1-yl)-6-(5-(thiophen-2-yl)pyrazolo[1,5-a]pyrimidin-3-yl)isonicotinamide] | 0.28 nM
9 | N[C@@H]1CCC[C@H]2CCCN(C(=O)c3ccnc(-c4cnn5ccc(-c6ccccc6)nc45)c3)[C@H]21 [Example 98, ((4aS,8R,8aR)-8-aminooctahydroquinolin-1(2H)-yl)(2-(5-phenylpyrazolo[1,5-a]pyrimidin-3-yl)pyridin-4-yl)methanone] | 7.36 nM
10 | O=C(c1ccnc(-c2cnn3ccc(-c4cccs4)nc23)c1)N1CCC[C@@H]2CCNC[C@@H]21 [Example 101, ((4aR,8aR)-octahydro-1,7-naphthyridin-1(2H)-yl)(2-(5-(thiophen-2-yl)pyrazolo[1,5-a]pyrimidin-3-yl)pyridin-4-yl)methanone] | 9.54 nM
11 | CCN(CC)[C@@H](C)CNC(=O)c1cc(-c2cnn3ccc(-c4cccs4)nc23)nc(N2CC(OC(F)F)C2)c1 [Example 144, (S)—N-(2-(diethylamino)propyl)-2-(3-(difluoromethoxy)azetidin-1-yl)-6-(5-(thiophen-2-yl)pyrazolo[1,5-a]pyrimidin-3-yl)isonicotinamide] | 0.18 nM
12 | O=C(NC[C@@H]1C[C@H](F)CN1)c1ccnc(-c2cnn3ccc(-c4cccs4)nc23)c1 [Example 5, N-(((2S,4S)-4-fluoropyrrolidin-2-yl)methyl)-2-(5-(thiophen-2-yl)pyrazolo[1,5-a]pyrimidin-3-yl)isonicotinamide] | 12.7 nM
13 | CCN(CC)[C@@H](C)CNC(=O)c1cc(-c2cnn3ccc(-c4ccc(F)s4)nc23)nc(N2CC[C@H]2C(=O)NC)c1 [Example 361, N—((S)-2-(diethylamino)propyl)-2-(5-(5-fluorothiophen-2-yl)pyrazolo[1,5-a]pyrimidin-3-yl)-6-((S)-2-(methylcarbamoyl)azetidin-1-yl)isonicotinamide] | 0.15 nM
14 | CCN(CC)[C@@H](C)CNC(=O)c1cc(-c2cnn3ccc(-c4cccs4)nc23)nc(N2CC(C(N)=O)C2)c1 [Example 208, (S)-2-(3-carbamoylazetidin-1-yl)-N-(2-(diethylamino)propyl)-6-(5-(thiophen-2-yl)pyrazolo[1,5-a]pyrimidin-3-yl)isonicotinamide] | 0.07 nM
15 | NC[C@@H]1CCCCN1C(=O)c1cc(Cl)nc(-c2cnn3ccc(-c4ccccc4)nc23)c1 [Example 133, (S)-(2-(aminomethyl)piperidin-1-yl)(2-chloro-6-(5-phenylpyrazolo[1,5-a]pyrimidin-3-yl)pyridin-4-yl)methanone] | 163 nM
16 | CCN(CC)[C@@H](C)CNC(=O)c1cc(-c2cnn3ccc(-c4cccs4)nc23)nc(C(C)C)c1 [Example 104, (S)—N-(2-(diethylamino)propyl)-2-isopropyl-6-(5-(thiophen-2-yl)pyrazolo[1,5-a]pyrimidin-3-yl)isonicotinamide] | 3.96 nM
17 | NC[C@H]1CCCCN1C(=O)c1cc(-c2cnn3ccc(-c4ccccc4)nc23)ncc1Cl [Example 137, (R)-(2-(aminomethyl)piperidin-1-yl)(5-chloro-2-(5-phenylpyrazolo[1,5-a]pyrimidin-3-yl)pyridin-4-yl)methanone] | 1.82 nM
18 | CCN(CC)[C@@H](CO)CNC(=O)c1cc(-c2cnn3ccc(-c4cccs4)nc23)nc(N2CC[C@H]2C(=O)NC)c1 [Example 358, N—((R)-2-(diethylamino)-3-hydroxypropyl)-2-((S)-2-(methylcarbamoyl)azetidin-1-yl)-6-(5-(thiophen-2-yl)pyrazolo[1,5-a]pyrimidin-3-yl)isonicotinamide] | 0.46 nM
19 | CCN(CC)[C@@H](C)CNC(=O)c1cc(-c2cnn3ccc(-c4cccs4)nc23)nc(N(C)S(C)(=O)=O)c1 [Example 177, (S)—N-(2-(diethylamino)propyl)-2-((N-methylmethyl)sulfonamido)-6-(5-(thiophen-2-yl)pyrazolo[1,5-a]pyrimidin-3-yl)isonicotinamide] | 0.8 nM
20 | CCN(CC)[C@@H](C)CNC(=O)c1cc(-c2cnn3ccc(-c4cccs4)nc23)nc(N2CC[C@H]2C(N)=O)c1 [Example 299, 2-((S)-2-carbamoylazetidin-1-yl)-N—((S)-2-(diethylamino)propyl)-6-(5-(thiophen-2-yl)pyrazolo[1,5-a]pyrimidin-3-yl)isonicotinamide] | 0.22 nM
21 | CCN(CC)[C@@H](C)CNC(=O)c1cc(-c2cnn3ccc(-c4cccs4)nc23)nc(N2CCC[C@H]2C(=O)NC)c1 [Example 319, N—((S)-2-(diethylamino)propyl)-2-((S)-2-(methylcarbamoyl)pyrrolidin-1-yl)-6-(5-(thiophen-2-yl)pyrazolo[1,5-a]pyrimidin-3-yl)isonicotinamide] | 3.02 nM
22 | Nc1cc(C(=O)N2C3CCNCC2CC3)cc(-c2cnn3ccc(-c4ccccc4)nc23)n1 (stereo not drawn) [Example 128, (2-amino-6-(5-phenylpyrazolo[1,5-a]pyrimidin-3-yl)pyridin-4-yl)(-3,9-diazabicyclo[4.2.1]nonan-9-yl)methanone] | 27.8 nM
23 | CCN(CC)[C@@H](C)CNC(=O)c1cc(-c2cnn3ccc(-c4cccs4)nc23)nc(N2CC(C(C)(C)O)C2)c1 [Example 215, (S)—N-(2-(diethylamino)propyl)-2-(3-(2-hydroxypropan-2-yl)azetidin-1-yl)-6-(5-(thiophen-2-yl)pyrazolo[1,5-a]pyrimidin-3-yl)isonicotinamide] | 0.22 nM
24 | O=C(NC[C@]1(CC2CC2)CCCN1)c1ccnc(-c2cnn3ccc(-c4cccs4)nc23)c1 [Example 18, (R)—N-((2-(cyclopropylmethyl)pyrrolidin-2-yl)methyl)-2-(5-(thiophen-2-yl)pyrazolo[1,5-a]pyrimidin-3-yl)isonicotinamide] | 6.51 nM
25 | CN(C)c1cc(C(=O)N2CC[C@H](N)C2)cc(-c2cnn3ccc(-c4cccs4)nc23)n1 [Example 109, (S)-(3-aminopyrrolidin-1-yl)(2-(dimethylamino)-6-(5-(thiophen-2-yl)pyrazolo[1,5-a]pyrimidin-3-yl)pyridin-4-yl)methanone] | 20.8 nM
26 | CCN[C@@H](C)CNC(=O)c1cc(-c2cnn3ccc(-c4ccccc4)nc23)nc(C(C)C)c1 [Example 122, (S)—N-(2-(ethylamino)propyl)-2-isopropyl-6-(5-phenylpyrazolo[1,5-a]pyrimidin-3-yl)isonicotinamide] | 4.61 nM
27 | O=C(NC[C@@H]1CCN1)c1ccnc(-c2cnn3ccc(-c4cccs4)nc23)c1 [Example 7, (S)—N-(azetidin-2-ylmethyl)-2-(5-(thiophen-2-yl)pyrazolo[1,5-a]pyrimidin-3-yl)isonicotinamide] | 6.05 nM
28 | C[C@@H](CNC(=O)c1ccnc(-c2cnn3ccc(-c4cccs4)nc23)c1)NCCF [Example 24, (S)—N-(2-((2-fluoroethyl)amino)propyl)-2-(5-(thiophen-2-yl)pyrazolo[1,5-a]pyrimidin-3-yl)isonicotinamide] | 7.88 nM
29 | CCNC(=O)Nc1cc(C(=O)NC[C@H](C)N(CC)CC)cc(-c2cnn3ccc(-c4cccs4)nc23)n1 [Example 185, (S)—N-(2-(diethylamino)propyl)-2-(3-ethylureido)-6-(5-(thiophen-2-yl)pyrazolo[1,5-a]pyrimidin-3-yl)isonicotinamide] | 0.11 nM
30 | CCN(CC)[C@@H](C)CNC(=O)c1cc(-c2cnn3ccc(-c4cccs4)nc23)nc(N2CC[C@H]2C(=O)N2CC(S(C)(=O)=O)C2)c1 [Example 302, N—((S)-2-(diethylamino)propyl)-2-((S)-2-(3-(methylsulfonyl)azetidine-1-carbonyl)azetidin-1-yl)-6-(5-(thiophen-2-yl)pyrazolo[1,5-a]pyrimidin-3-yl)isonicotinamide] | 0.2 nM
